Source: patent US20220087951A1, “USE OF CANNABINOIDS IN THE TREATMENT OF EPILEPSY” (GW RESEARCH LIMITED, priority 2020, published 2022)

Columns and labels:
[1] = Solubility of the drug substance in water; type: physicochemical
[2] = tested on: seizures in children and young adults with Dravet Syndrome and Lennox-Gastaut Syndrome; assay: Example 1: primary seizure count during baseline and by cumulative day in the treatment period, CBD vs placebo added to baseline AED regimen; type: in vivo, human; settings: for Ratio to Baseline (number of seizures with treatment to number of seizures at baseline): 5 mg/kg/day starting dose, negative binomial regression of primary seizure count; for percent change in number of seizures compared to baseline: 5 mg/kg/day, positive = decrease in seizures
Protocol: Children and young adults with Dravet Syndrome Lennox-Gastaut Syndrome were administered a highly purified extract of cannabidiol (CBD) obtained from a cannabis plant or placebo.
The highly purified CBD extract (greater than 98% CBD w/w) was administered in a formulation described herein at a starting dose of 5 mg/kg/day in addition to their baseline anti-epileptic drug (AED) regimen.
The starting dose increase from 5 mg/kg/day to 10 mg/kg/day after one week of administering the first dose of CBD. […] The titration period occurred over two weeks. The starting dose was expected to minimize side effects, and not intended to achieve efficacy.
All patients were taking at least two concomitant anti-epileptic drugs. These included clobazam; levetiracetam; topiramate; stiripentol; phenobarbital; lacsamide; valproic acid; zonisamide.
(§1) Prior to treatment with CBD, patients recorded the number of seizures they experienced. This established the baseline levels. During the course of treatment, patients recorded the number of seizures experienced each day.
The ratio in Table 9 is defined as the number of seizures with treatment to the number of seizures at baseline (e.g., before treatment). The percentage defines the percent change in number of seizures compared to baseline. Positive percentages reflect a decrease in the number of seizures compared to baseline, and negative percentages reflect an increase in number of seizures compared to baseline. The ratio to baseline of patients administered CBD extract includes data from patients treated with a maximum of 10 mg/kg/day or 20 mg/kg/day CBD extract. However, the amount of CBD administered to each treatment arm (10 mg/kg/day and 20 mg/kg/day) over the first 7 days of the study is the same.

[3] = tested on: seizures in patients with Tuberous Sclerosis Complex (TSC); assay: Example 2: mean total seizures over time of TSC patients after administration of CBD (FIG. 2); type: in vivo, human
Protocol: Patients with TSC were administered a highly purified extract of cannabidiol (CBD) obtained from a cannabis plant described herein. Similar to Example 1, patients with a TSC diagnosis were administered a starting dose of 5 mg/kg/day CBD in addition to their baseline anti-epileptic drug (AED) regimen or placebo.
The daily dose was increased by 5 mg/kg increments until intolerance occurred or a maximum dose of 25 mg/kg/day was achieved. The starting dose increase from 5 mg/kg/day to 10 mg/kg/day occurred 7 days after administration of the first dose of CBD. […] The titration period occurred over two weeks. For patients in need of further seizure reduction, the dosage of 20 mg/kg/day was increased up to 25 mg/kg/day after one week.
All patients were taking at least two concomitant anti-epileptic drugs. These included clobazam; levetiracetam; topiramate; stiripentol; phenobarbital; lacsamide; valproic acid; zonisamide. The average number of concomitant antiepileptic drugs being taken was 2.7. The majority took either clobazam and/or valproic acid.
as §1

C=C(C)[C@@H]1CCC(C)=C[C@H]1c1c(O)cc(CCCCC)cc1O [CBD, Cannabidiol]
solubility in water [1]: insoluble in water | Ratio to Baseline (number of seizures with treatment to number of seizures at baseline) ([2]; Day 1): 0.958 | percent change in number of seizures compared to baseline ([2]; Day 1): [4.2%] | onset of seizure reduction ([2]; Dravet/Lennox-Gastaut patients, starting dose 5 mg/kg/day): within one week | Ratio to Baseline (number of seizures with treatment to number of seizures at baseline) ([2]; First 2 Days): 0.907 | percent change in number of seizures compared to baseline ([2]; First 2 Days): [9.3%] | Ratio to Baseline (number of seizures with treatment to number of seizures at baseline) ([2]; First 3 Days): 0.882 | percent change in number of seizures compared to baseline ([2]; First 3 Days): [11.8%] | Ratio to Baseline (number of seizures with treatment to number of seizures at baseline) ([2]; First 4 Days): 0.831 | percent change in number of seizures compared to baseline ([2]; First 4 Days): [16.9%] | Ratio to Baseline (number of seizures with treatment to number of seizures at baseline) ([2]; First 5 Days): 0.793 | percent change in number of seizures compared to baseline ([2]; First 5 Days): [20.7%] | Ratio to Baseline (number of seizures with treatment to number of seizures at baseline) ([2]; First 6 Days): 0.742 | percent change in number of seizures compared to baseline ([2]; First 6 Days): [25.8%] | Ratio to Baseline (number of seizures with treatment to number of seizures at baseline) ([2]; First 7 Days): 0.717 | percent change in number of seizures compared to baseline ([2]; First 7 Days): [28.3%] | reduction in seizures compared to baseline ([2]; after 4 days of treatment): significant reduction in seizures | reduction of seizures ([2]; from within 4 days of treatment, 5 mg/kg/day CBD): > 15% | time to seizure reduction after administration of starting dose ([2]; starting dose 5 mg/kg/day): ≤ 4 days | reduction in seizures compared to baseline ([3]; after 4 days of treatment): significant reduction in seizures | onset of seizure reduction ([3]; starting dose 5 mg/kg/day): within one week | time to seizure reduction after administration of starting dose ([3]; starting dose 5 mg/kg/day): ≤ 4 days | mean total seizures over time (FIG. 2) ([3]; titration period, starting dose 5 mg/kg/day): starts decreasing during the titration period
